Experimental data: patent US20170349532A1, “CATIONIC LIPID” (Kyowa Hakko Kirin Co., Ltd., priority 2011, published 2017)

Assay: Average particle diameter of preparation (Zetasizer Nano ZS)
Assay type: physicochemical
Details: Comparative Examples 1 to 8, prepared as Example 118 with apo-b siRNA
From the text: Preparations were produced using the compounds obtained in Examples 1 to 117, as follows.
APO-B siRNA was used as the nucleic acid. APO-B siRNA suppresses expression of an apolipoprotein-B (hereinafter, “apo-b”) gene and has a sense strand with the base sequence 5′-GmUCAmUCACACmUGAAmUACCAAmU-3′ (the sugars attached to the bases appended with m are 2′-O-methyl-substituted riboses), and an antisense strand with the base sequence 5′-[…]-3′ (the 5′-end is phosphorylated). The sense strand and the antisense strand were obtained from Nippon EGT, GeneDesign, Inc., Invitrogen or Hokkaido System Science Co., Ltd., and annealed to prepare the nucleic acid (hereinafter, “apo-b siRNA”).
A solution comprising the constituent components was prepared by dissolving each of the weighed samples in 90 vol % ethanol in 8.947/1.059/5.708/13.697 mmol/L [compounds 1 to 117 obtained in Examples 1 to 117/sodium 1,2-dimyristoyl-sn-glycero-3-phosphoethanolamine-N-(methoxy(polyethylene glycol)-2000) (PEG-DMPE Na,N-(carbonylmethoxypolyethylene glycol 2000)-1,2-dimyristoyl-sn-glycero-3-phosphoethanolamine sodium salt, NOF Corporation)/distearoylphosphatidyl choline (DSPC, 1,2-distearoyl-sn-glycero-3-phosphocholine, NOF Corporation)/cholesterol (Avanti Polar Lipids)]. Separately, apo-b siRNA/distilled water (24 mg/mL) was diluted with a Tris-EDTA buffer (200 mM Tris-HCl, 20 mM EDTA, Invitrogen) and a 20 mM citric acid buffer (pH 5.0) to prepare a 1.5 mg/mL apo-b siRNA aqueous solution (2 mM Tris-EDTA/20 mM citric acid buffer, pH 5.0).
The resulting lipid solution was heated to 37° C., and a 100-μL portion was transferred to a preparation container. The apo-b siRNA aqueous solution (100 μL) was then added thereto while being stirred. Then, a 20 mM citric acid buffer (containing 300 mM NaCl, pH 6.0; 200 μL) was added to the lipid nucleic acid mixed suspension (200 μL) while being stirred. The siRNA concentration was brought to 10 μM by dropping a Dulbecco phosphate buffer (DPBS, Invitrogen; 662 μL), and preparations (compositions comprising compounds 1 to 117 and the nucleic acid) were obtained.
The average particle diameter of the complex between the cationic lipis and the nucleic acid in each preparation was measured with a particle diameter measurement device (Malvern; Zetasizer Nano ZS).

| Structure (SMILES) | average particle diameter of the complex between the cationic lipis and the nucleic acid in the preparation |
| --- | --- |
| CCCCC/C=C\C/C=C\CCCCCCCCOC1CN(Cc2ccccc2)C[C@H]1OCCCCCCCC/C=C\C/C=C\CCCCC (stereo in doubt) [Compound VI-3, (3R,4R)-1-Benzyl-3,4-bis((9Z,12Z)-octadec-9,12-dienyloxy)pyrrolidine, reference compound] | 167.8 nm |

Same assay, conditions: average particle diameter of cationic lipid/nucleic acid complex; Example 118 preparation: compound/PEG-DMPE Na/DSPC/cholesterol with apo-b siRNA

| Structure (SMILES) | Particle diameter of Preparetion |
| --- | --- |
| CCCCCCCC/C=C\CCCCCCCC(=O)OC[C@@H]1C[N+](C)(C)C[C@H]1COC(=O)CCCCCCC/C=C\CCCCCCCC.[Cl-] (relative stereo) [Compound 113, trans-1,1-Dimethyl-3,4-bis(((Z)-octadec-9-enoyloxy)methyl)pyrrolidinium chloride] | 103.5 nm |
| CCCCC/C=C\C/C=C\CCCCCCCC(=O)OC[C@@H]1C[N+](C)(C)C[C@H]1COC(=O)CCCCCCC/C=C\C/C=C\CCCCC.[Cl-] (relative stereo) [Compound 114, trans-1,1-Dimethyl-3,4-bis(((9Z,12Z)-octadec-9,12-dienoyloxy)methyl)pyrrolidinium chloride] | 108.2 nm |
| CCCCC/C=C\C/C=C\CCCCCCCCO[C@H]1CNC[C@@H]1OCCCCCCCC/C=C\C/C=C\CCCCC (stereo in doubt) [Compound 43, (3S,4S)-3,4-bis((9Z,12Z)-Octadec-9,12-dienyloxy)pyrrolidine] | 150.0 nm |
| CCCCC/C=C\C/C=C\CCCCCCCCO[C@H]1CN(C)C[C@@H]1OCCCCCCCC/C=C\C/C=C\CCCCC (stereo in doubt) [Compound 50, (3S,4S)-1-Methyl-3,4-bis((9Z,12Z)-octadec-9,12-dienyloxy)pyrrolidine] | 129.2 nm |
| CCCCC/C=C\C/C=C\CCCCCCCCO[C@@H]1CNC[C@H]1OCCCCCCCC/C=C\C/C=C\CCCCC [Compound 1, (3R,4R)-3,4-bis((9Z,12Z)-Octadec-9,12-dienyloxy)pyrrolidine] | 137.4 nm |
| CCCCC/C=C\C/C=C\CCCCCCCC(=O)O[C@@H]1CNC[C@H]1OC(=O)CCCCCCC/C=C\C/C=C\CCCCC [Compound 2, (3R,4R)-Pyrrolidine-3,4-diyl di((9Z,12Z)-octadec-9,12-dienoate)] | 139.6 nm |
| CCCCC/C=C\C/C=C\CCCCCCCCO[C@H]1CNC[C@H]1OCCCCCCCC/C=C\C/C=C\CCCCC [Compound 3, (3R,4S)-3,4-bis((9Z,12Z)-Octadec-9,12-dienyloxy)pyrrolidine] | 152.8 nm |
| CCCCCCCC/C=C\CCCCCCCCO[C@@H]1CNC[C@H]1OCCCCCCCC/C=C\CCCCCCCC [Compound 4, (3R,4R)-3,4-bis((Z)-Octadec-9-enyloxy)pyrrolidine] | 160.6 nm |
| CCCCCCCCCCCCCCO[C@@H]1CNC[C@H]1OCCCCCCCCCCCCCC [Compound 5, (3R,4R)-3,4-bis(Tetradecyloxy)pyrrolidine] | 154.2 nm |
| CCCCCC/C=C\CCCCCCCCO[C@@H]1CNC[C@H]1OCCCCCCCC/C=C\CCCCCC [Compound 6, (3R,4R)-3,4-bis((Z)-Hexadec-9-enyloxy)pyrrolidine] | 140.3 nm |
| CCCCCCCCCCC/C=C\CCCCCO[C@@H]1CNC[C@H]1OCCCCC/C=C\CCCCCCCCCCC [Compound 7, (3R,4R)-3,4-bis((Z)-Octadec-6-enyloxy)pyrrolidine] | 148.7 nm |
| CCCCC/C=C\C/C=C\CCCCCCCCCCO[C@@H]1CNC[C@H]1OCCCCCCCCCC/C=C\C/C=C\CCCCC [Compound 8, (3R,4R)-3,4-bis((11Z,14Z)-Icos-11,14-dienyloxy)pyrrolidine] | 143.8 nm |
| CCCCCCCC/C=C\CCCCCCCC(=O)O[C@@H]1CNC[C@H]1OC(=O)CCCCCCC/C=C\CCCCCCCC [Compound 9, (3R,4R)-Pyrrolidine-3,4-diyl di((Z)-octadec-9-enoate)] | 141.9 nm |
